From patent publication US20260078120A1, “SUBSTITUTED PYRIDOPYRIMIDINONES” (MIRATI THERAPEUTICS, INC., priority 2022, published 2026) come the findings set out here.

In assay [1] the test system is SKBR3 (PI3Kα wild type) cells. Description: CellTiter-Glo 2.0 luminescent cell viability assay, 72 hours, SKBR3 cells. In kind it is cell-based. As to conditions: Homo sapiens, SK-BR-3, 72 h, SKBR3 (PI3Kα wild type) cells, CellTiter-Glo, approximately 72 hours; read-out: SKBR3 (WT) Viability IC50. On the procedure:
(§1) The ability of a compound of Formula (I) to decrease the viability of cells was measured using CellTiter-Glo 2.0 (CTG) Luminescent Cell Viability Assay (#G9241) obtained from Promega (Madison, WI).
To prepare assay plates for viability assays, cells were trypsinized, resuspended in fresh media, and viable cells were counted utilizing trypan blue exclusion.
(§2) Assay day 1, cells were dosed using an Echo Liquid Handler (Beckman Coulter) with compounds at a 10 um starting concentration and serially diluted (1:4) for a total of 10 concentrations. Cells were incubated for approximately 72 hours with the compounds (solubilized in DMSO) at 37° C. After 72 hours of treatment, cell plates were equilibrated to room temperature before adding 15 μl of CTG to each well, plates were then covered in aluminum foil to protect from light, incubated at room temperature for 30 minutes on a microtiter plate shaker, and luminescence readings were collected using a CLARIOstar microplate reader (BMG Labtech, Germany). Percent of vehicle control values were plotted as log (inhibitor) vs. response-Variable slope (four parameters) for curve fitting and IC50 values were determined using XLfit.
In general terms: Cellular ATP, detected with luciferase, serves as a proxy for viable cell number.

Assay [2] relates to T47D (PI3Kα H1047R mutant) cells. Description: CellTiter-Glo 2.0 luminescent cell viability assay, 72 hours, T47D cells. In kind it is cell-based. The note with it: Homo sapiens, T47D, 72 h, T47D (PI3Kα H1047R mutant) cells, CellTiter-Glo, approximately 72 hours; read-out: T47D (H1047R mutant) Viability IC50. On the procedure:
This Example illustrates that exemplary compounds of the present invention decrease the viability of cells.
as §1
To prepare assay plates for viability assays, cells were trypsinized, resuspended in fresh media, and viable cells were counted utilizing trypan blue exclusion. T47D, SKBR3, or MKN1 cells were seeded at 1000 cells in 30 μl per well in a solid white flat bottom 384 cell culture plate (Perkin Elmer #6007680) and incubated at 37° C. overnight.
as §2

`Cc1ccc2c(c1)CN(c1nc3c([C@@H](C)Nc4ccccc4C(=O)O)cc(C)cn3c(=O)c1C)C2` [Example 11-17, (R)-2-((1-(3,7-dimethyl-2-(5-methylisoindolin-2-yl)-4-oxo-4H-pyrido[1,2-a]pyrimidin-9-yl)ethyl)amino)benzoic acid]: the values for the IC50 in assay [1] and in assay [2] were more than 10000 nM and 796 nM, respectively.
In the same order, the values of `Cc1cc([C@@H](C)Nc2ccccc2C(=O)O)c2nc(N3CC(c4ccccc4)C3)c(C)c(=O)n2c1` [Example 11-18, (R)-2-((1-(3,7-dimethyl-4-oxo-2-(3-phenylazetidin-1-yl)-4H-pyrido[1,2-a]pyrimidin-9-yl)ethyl)amino)benzoic acid] are more than 10000 nM and 416 nM.
The matching figures for `Cc1cc([C@@H](C)Nc2ccccc2C(=O)O)c2nc(N3Cc4ccccc4C3CO)c(C)c(=O)n2c1` (stereo partly drawn) [Example 11-19, 2-(((1R)-1-(2-(1-(hydroxymethyl)isoindolin-2-yl)-3,7-dimethyl-4-oxo-4H-pyrido[1,2-a]pyrimidin-9-yl)ethyl)amino)benzoic acid]: more than 10000 nM and 173 nM.
Take `Cc1cc([C@@H](C)Nc2ccccc2C(=O)O)c2nc(N3CCC(C4CCC4)CC3)c(C)c(=O)n2c1` [Example 11-20, (R)-2-((1-(2-(4-cyclobutylpiperidin-1-yl)-3,7-dimethyl-4-oxo-4H-pyrido[1,2-a]pyrimidin-9-yl)ethyl)amino)benzoic acid]: the results for the IC50 in assay [1] and in assay [2] were more than 10000 nM and 316 nM, respectively.
With `Cc1cc([C@@H](C)Nc2ccccc2C(=O)O)c2nc(N3CC(c4cccnc4)C3)c(C)c(=O)n2c1` [Example 11-21, (R)-2-((1-(3,7-dimethyl-4-oxo-2-(3-(pyridin-3-yl)azetidin-1-yl)-4H-pyrido[1,2-a]pyrimidin-9-yl)ethyl)amino)benzoic acid], the figures for the IC50 in assay [1] and in assay [2] were more than 10000 nM and 239 nM, respectively.
In the same order, the values of `Cc1cc([C@@H](C)Nc2ccccc2C(=O)O)c2nc(N3CC4CC5CC4C3C5O)c(C)c(=O)n2c1` (stereo partly drawn) [Example 11-22, 2-(((1R)-1-(2-(6-hydroxyhexahydro-3,5-methanocyclopenta[b]pyrrol-1(2H)-yl)-3,7-dimethyl-4-oxo-4H-pyrido[1,2-a]pyrimidin-9-yl)ethyl)amino)benzoic acid] are more than 10000 nM and 192 nM.
In the same order, the values of `Cc1cc([C@@H](C)Nc2ccccc2C(=O)O)c2nc(N3CCC(N4CCC(F)(F)CC4)CC3)c(C)c(=O)n2c1` [Example 11-23, (R)-2-((1-(2-(4,4-difluoro-[1,4′-bipiperidin]-1′-yl)-3,7-dimethyl-4-oxo-4H-pyrido[1,2-a]pyrimidin-9-yl)ethyl)amino)benzoic acid] are more than 10000 nM and 139 nM.
Take `Cc1cc([C@@H](C)Nc2ccccc2C(=O)O)c2nc(N3CC4CC(C)(C)C4C3)c(C)c(=O)n2c1` (stereo partly drawn) [Example 11-24, 2-(((1R)-1-(2-(6,6-dimethyl-3-azabicyclo[3.2.0]heptan-3-yl)-3,7-dimethyl-4-oxo-4H-pyrido[1,2-a]pyrimidin-9-yl)ethyl)amino)benzoic acid]: the figures for the IC50 in assay [1] and in assay [2] were more than 10000 nM and 123 nM, respectively.
The matching figures for `Cc1cc([C@@H](C)Nc2ccccc2C(=O)O)c2nc(N3CC4(C3)CC3(CCC3)C4)c(C)c(=O)n2c1` [Example 11-26, (R)-2-((1-(2-(2-azadispiro[3.1.3^6.1^4]decan-2-yl)-3,7-dimethyl-4-oxo-4H-pyrido[1,2-a]pyrimidin-9-yl)ethyl)amino)benzoic acid]: more than 10000 nM and 216 nM.
As to `Cc1cc([C@@H](C)Nc2ccccc2C(=O)O)c2nc(N3CC4CCCCCCC4C3)c(C)c(=O)n2c1` (stereo partly drawn) [Example 11-27, 2-(((1R)-1-(2-(decahydro-2H-cycloocta[c]pyrrol-2-yl)-3,7-dimethyl-4-oxo-4H-pyrido[1,2-a]pyrimidin-9-yl)ethyl)amino)benzoic acid], the IC50 (usually the point on the concentration scale where inhibition reaches its midpoint) in assay [1] was more than 10000 nM; in assay [2], 1600 nM.
The matching figures for `Cc1cc([C@@H](C)Nc2ccccc2C(=O)O)c2nc(N3CC(O)C4(CCC4)C3)c(C)c(=O)n2c1` (stereo partly drawn) [Example 11-28, 2-(((1R)-1-(2-(8-hydroxy-6-azaspiro[3.4]octan-6-yl)-3,7-dimethyl-4-oxo-4H-pyrido[1,2-a]pyrimidin-9-yl)ethyl)amino)benzoic acid]: more than 10000 nM and 187 nM.
In the same order, the values of `Cc1cc([C@@H](C)Nc2ccccc2C(=O)O)c2nc(N3C4CC5CC(C4)CC3C5)c(C)c(=O)n2c1` [Example 11-29, (R)-2-((1-(2-(2-azaadamantan-2-yl)-3,7-dimethyl-4-oxo-4H-pyrido[1,2-a]pyrimidin-9-yl)ethyl)amino)benzoic acid] are more than 10000 nM and 244 nM.
In the same order, the values of `Cc1cc([C@@H](C)Nc2ccccc2C(=O)O)c2nc(N3CC4CCC3CC4O)c(C)c(=O)n2c1` (stereo partly drawn) [Example 11-30, 2-(((1R)-1-(2-(5-hydroxy-2-azabicyclo[2.2.2]octan-2-yl)-3,7-dimethyl-4-oxo-4H-pyrido[1,2-a]pyrimidin-9-yl)ethyl)amino)benzoic acid] are more than 10000 nM and 401 nM.
Take `Cc1cc([C@@H](C)Nc2ccccc2C(=O)O)c2nc(N3CC(O)C4CCCCC43)c(C)c(=O)n2c1` (stereo partly drawn) [Example 11-31, 2-(((1R)-1-(2-(3-hydroxyoctahydro-1H-indol-1-yl)-3,7-dimethyl-4-oxo-4H-pyrido[1,2-a]pyrimidin-9-yl)ethyl)amino)benzoic acid]: the results for the IC50 in assay [1] and in assay [2] were more than 10000 nM and 328 nM, respectively.
With `Cc1cc([C@@H](C)Nc2ccccc2C(=O)O)c2nc(N3CC4CC3CC4c3ccccc3)c(C)c(=O)n2c1` (stereo partly drawn) [Example 11-32, 2-(((1R)-1-(3,7-dimethyl-4-oxo-2-(5-phenyl-2-azabicyclo[2.2.1]heptan-2-yl)-4H-pyrido[1,2-a]pyrimidin-9-yl)ethyl)amino)benzoic acid], the values for the IC50 in assay [1] and in assay [2] were more than 10000 nM and 303 nM, respectively.
In the same order, the values of `Cc1cc([C@@H](C)Nc2ccccc2C(=O)O)c2nc(N3CC4C5CCC5C4C3)c(C)c(=O)n2c1` (stereo partly drawn) [Example 11-33, 2-(((1R)-1-(3,7-dimethyl-4-oxo-2-(8-azatricyclo[4.3.0.0^2,5]nonan-8-yl)-4H-pyrido[1,2-a]pyrimidin-9-yl)ethyl)amino)benzoic acid] are more than 10000 nM and 310 nM.
The matching figures for `Cc1cc([C@@H](C)Nc2ccccc2C(=O)O)c2nc(N3CC4CC(C3)C4(C)O)c(C)c(=O)n2c1` (stereo partly drawn) [Example 11-34, 2-(((1R)-1-(2-(6-hydroxy-6-methyl-3-azabicyclo[3.1.1]heptan-3-yl)-3,7-dimethyl-4-oxo-4H-pyrido[1,2-a]pyrimidin-9-yl)ethyl)amino)benzoic acid]: more than 10000 nM and 215 nM.
The matching figures for `Cc1cc([C@@H](C)Nc2ccccc2C(=O)O)c2nc(N3CC4C5CCC(C5O)C4C3)c(C)c(=O)n2c1` (stereo partly drawn) [Example 11-35, 2-(((1R)-1-(2-(8-hydroxyoctahydro-2H-4,7-methanoisoindol-2-yl)-3,7-dimethyl-4-oxo-4H-pyrido[1,2-a]pyrimidin-9-yl)ethyl)amino)benzoic acid]: more than 10000 nM and 136 nM.
